Measured values: US20070248646A1, “Use of azurocidin inhibitors in prevention and treatment of ocular vascular leakage” (priority 2006, published 2007)

Key:
[1] = tested on: VEGF-induced blood retinal barrier breakdown; assay: VEGF-induced blood retinal barrier breakdown (Evans Blue); type: in vivo, Brown Norway rats
Method: This study employed Brown Norway rats, AZ (1 μg, 10 μg, 20 μg), PBS, aprotinin, VEGF164, and polyclonal anti-AZ antibody (1 μg). Briefly, Brown Norway rats received intravitreal injections of AZ (1 μg, 10 μg and 20 μg) in one eye and PBS in the contralateral eye. BRB breakdown was quantified using the Evans Blue (EB) technique at 1 hour, 3 hours, and 24 hours after intravitreal injection of AZ or PBS. To assess whether AZ induced retinal leukostasis, firm leukocyte adhesion was quantified at 3 hours and 24 hours post AZ injection (10 μg) using the ex vivo conconavalin leukostasis assay. To block AZ, rats were treated with a single intravenous injection of aprotinin (30,000KIU), prior to the intravitreal injections. To investigate whether AZ was involved in VEGF-induced BRB breakdown, rats received intravitreal injections of 50 ng recombinant mouse VEGF164 in one eye and PBS in the other eye and were treated intravenously with aprotinin (50,000KIU every eight hours) or polyclonal anti-AZ antibody (1 μg). BRB breakdown and retinal leukostasis were quantified 24 hours after VEGF injection.
Rats received intravitreous injections of 5 μl of sterile phosphate-buffered saline (PBS) containing 50 ng VEGF164 (R&D Systems, Minneapolis, Minn.) in one eye and 5 μl of sterile phosphate-buffered saline (PBS) in the contralateral eye. The retinas were analyzed for leakage 24 hours after VEGF injection.
In a second group, the rats were additionally treated intravenously with aprotinin (Trasylol®, Bayer Pharmaceuticals). 50,000KIU of aprotinin (5 ml of Trasylol®) was administered intravenously through the tail vein 1 hour before, as well as 8 hours and 16 hours after, the intravitreal injection of VEGF. The retinas were analyzed 24 hours after VEGF administration.
In a third group, rats were treated with intravitreous injections of 1 μg of goat anti-human azurocidin polyclonal antibody (5 μl of a 200 μg/ml antibody solution, Santa Cruz biotechnology) or control goat isotype IgG (R&D system) in the VEGF injected eye 6 hours after VEGF administration.
Retinal vascular permeability was quantified as previously described (Qaum et al. (2002) supra, Xu et al. (2001) INVEST. OPHTHALMOL. VIS. SCI. 42; 789-94). After the animals were deeply anesthetized, Evans blue dye (Sigma) dissolved in normal saline (30 mg/ml) was injected through the tail vein over 10 seconds at a dosage of 45 mg/kg. Blood samples were obtained from the left ventricle, just before perfusion at 2 hours, to obtain the time-average Evans blue dye plasma concentration. These blood samples were centrifuged at 12,000 rpm for 15 minutes and diluted to 1/10,000th of their initial concentration in formamide (Sigma). The background-subtracted absorbance was determined by measuring each sample at 620 nm (the absorbance maximum for Evans blue dye in formamide) and 740 nm (the absorbance minimum) with a spectrophotometer. The concentration of dye in the plasma was calculated from a standard curve of Evans blue dye in formamide. After the dye had circulated for 2 hours, the chest cavity was opened, and the rats were perfused through the left ventricle with 1% paraformaldehyde in citrate buffer (0.05 M, pH 3.5) at a physiological pressure of 120 mm Hg. The retinas were then carefully dissected under an operating microscope. After measurement of the retinal weight, Evans blue dye was extracted by incubating each retina in 0.180 ml of formamide for 18 hours at 70° C. The extract was ultracentrifuged at a speed of 14,000 rpm for 60 minutes at 25° C. Sixty microliters of the supernatant was used for spectrophotometric measurement at 620 nm and 740 nm. The background-subtracted absorbance was determined by measuring each sample at 620 nm (the absorbance maximum for Evans blue dye in formamide) and 740 nm (the absorbance minimum). The concentration of dye in the extracts was calculated from a standard curve of Evans blue dye in formamide. […]

[2] = tested on: retinal vascular leakage in diabetic retinopathy; assay: Retinal vascular leakage in streptozotocin-induced diabetic retinopathy; type: in vivo, Long-Evans rats; details: two weeks after streptozotocin-induced diabetes; aprotinin 50,000 KIU, systemic
Method: After an overnight fast, Long-Evans rats (Charles River, Wilmington, Mass.), weighing 200-250 g, received single 60 mg/kg intraperitoneal injections of streptozotocin (Sigma, St. Louis, Mo.) in 10 mM citrate buffer (pH 4.5). Control nondiabetic animals received citrate buffer alone. Animals with blood glucose levels greater than 250 mg/dl 24 hours after the streptozotocin injections were considered diabetic. The rats were fed standard laboratory chow and allowed free access to water. Before each experiment, the diabetic state was reconfirmed to be 250 mg/dl or higher.
Asterisks indicate statistical significance.

[3] = tested on: choroidal neovascular leakage; assay: Laser-induced CNV leakage by fluorescein angiography (model of AMD); type: in vivo, mice; details: 50,000KIU/day, i.p.
Description: Laser-induced CNV is a VEGF-dependent model for exudative changes that occur in AMD. In this model, disruption of an animal's Bruch's membrane by laser results in formation of CNV lesions. In these lesions, neovascular capillaries originate within the choroid and extend through the disrupted Bruch's membrane into the outer nuclear layer of the retina. The formation of these leaky capillaries is mainly attributed to changes in the level of angiogenic growth factors such as VEGF.
To perform the procedure, the pupils were dilated with 1-2 drops of 1% tropicamide. Subsequently, 4-6 photocoagulation lesions were delivered to each eye, using a Coherent argon laser (532 nm wavelength, 50 μm spot size, 0.1 s duration, 120-160 mW; model 920; Coherent, Palo Alto, Calif.) between the retinal vessels in a peripapillary distribution in each fundus, using a slit lamp delivery system and a cover glass as a contact lens. The genesis of a bubble at the time of laser treatment confirmed the rupture of the Bruch's membrane. […] Images were captured on a computer (using the IMAGEnet for Windows software, Topcon, Paramus, N.J.). Two masked evaluators performed the grading of the retinal images. A choroidal neovascular membrane is considered to be present if there was early hyperfluorescence followed by later leakage at the site where the laser injury is induced. […]

Substance: aprotinin
- BRB breakdown as percentage of the value in control eyes ([1]; 24 hours after intravitreal 50 ng VEGF): 110%±21
- Evans Blue retinal leakage in VEGF-injected eye ([1]; 24 hours after intravitreal 50 ng VEGF, PBS eye 9.6±1.4 (VEGF alone), 5.4±1.4 (with aprotinin)): 6.2±1.5 μl plasma/g retina/h
- fold increase in retinal vascular leakage compared to the PBS injected eye ([1]; 24 hours after intravitreal 50 ng VEGF, aprotinin i.v. 50,000KIU every eight hours, antibody 1 μg intravitreal 6 hours after VEGF): 1.1±0.21 fold
- suppression of VEGF-induced blood retinal barrier breakdown ([1]; 24 hours after intravitreal 50 ng VEGF, aprotinin i.v., antibody intravitreal 6 hours after VEGF): 95%
- basal levels of retinal Evans Blue leakage ([1]; PBS-injected eye, i.v. aprotinin): did not reduce the basal levels of retinal Evans Blue leakage
- vascular leakage (normalized BRB leakage) [2]: comparable to that of normal animals
- CNV leakage on fluorescein angiography compared to vehicle treated controls ([3]; day 7 post injury): substantially smaller
- CNV lesion size on fluorescein angiography ([3]; day 14 post injury): further reduced lesion size
